# “Also recorded” adds a separate entry of the source.
# Key:
# Assay type in all cases: cell-based
# ER-α = molecular target: T1, ER-α (Homo sapiens, UniProt P03372); test: Hormone receptor signaling pathway selectivity: ER-α mediated transcriptional response; settings: with E2; read-out: ER-α with ligand E2 (inhibition IC50)
# T1 sequence (P03372 1-595): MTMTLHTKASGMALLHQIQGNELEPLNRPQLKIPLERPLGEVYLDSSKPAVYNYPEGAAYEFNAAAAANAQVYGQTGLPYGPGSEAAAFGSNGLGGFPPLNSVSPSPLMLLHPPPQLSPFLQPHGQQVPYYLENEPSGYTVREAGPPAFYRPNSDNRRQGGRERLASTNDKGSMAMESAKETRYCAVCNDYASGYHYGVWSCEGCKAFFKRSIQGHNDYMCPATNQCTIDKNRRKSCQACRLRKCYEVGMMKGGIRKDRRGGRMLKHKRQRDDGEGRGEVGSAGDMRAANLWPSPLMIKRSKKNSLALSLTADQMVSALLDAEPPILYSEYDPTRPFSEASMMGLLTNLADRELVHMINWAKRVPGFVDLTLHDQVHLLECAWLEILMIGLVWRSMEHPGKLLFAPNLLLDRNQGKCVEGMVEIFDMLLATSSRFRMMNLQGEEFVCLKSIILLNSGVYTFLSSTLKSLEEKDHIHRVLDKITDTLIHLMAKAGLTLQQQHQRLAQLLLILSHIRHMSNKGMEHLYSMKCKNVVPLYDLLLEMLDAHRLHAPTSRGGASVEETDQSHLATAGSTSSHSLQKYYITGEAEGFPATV
# FXR = molecular target: T2, FXR (Homo sapiens, UniProt Q96RI1); test: FXR luciferase reporter assay in HepG2 reporter cells; settings: for EC50: no ligand added, read-out: FXR (stimulation EC50); for induction of FXR activity / FXR mediated transcriptional response: HepG2 FXR-luciferase reporter cells
# T2 construct: HepG2 cells were stably transfected with either FXR reporter DNA; endogenous in cells; host or cells: HepG2 cells stably transfected with a 3x FXR response element PGL4.2 luciferase reporter
# T2 sequence (Q96RI1 1-486): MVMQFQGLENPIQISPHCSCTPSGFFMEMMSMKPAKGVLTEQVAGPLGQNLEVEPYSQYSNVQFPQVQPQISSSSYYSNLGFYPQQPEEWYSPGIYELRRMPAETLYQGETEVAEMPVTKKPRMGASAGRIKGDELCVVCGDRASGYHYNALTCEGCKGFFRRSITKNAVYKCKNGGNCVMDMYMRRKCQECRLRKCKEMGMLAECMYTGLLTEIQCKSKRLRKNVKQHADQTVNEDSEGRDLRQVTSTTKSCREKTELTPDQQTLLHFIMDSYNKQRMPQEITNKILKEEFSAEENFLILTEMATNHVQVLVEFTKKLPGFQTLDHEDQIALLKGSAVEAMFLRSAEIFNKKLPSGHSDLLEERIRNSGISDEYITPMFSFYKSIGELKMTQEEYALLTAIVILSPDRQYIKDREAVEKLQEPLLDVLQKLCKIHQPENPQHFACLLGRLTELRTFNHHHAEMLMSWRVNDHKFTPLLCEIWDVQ
# Method: FXR luciferase reporter cells—FXR luciferase reporter cells—HepG2 cancer cells were used in the screening study. HepG2 cells were stably transfected with either FXR reporter DNA in which 3 repeated response element ([…])(SEQ ID NO:2) was inserted in-PGL4.2 luciferase reporter plasmid or LXR reporter DNA in which 3 repeated response element ([…])(SEQ ID NO:3) was inserted in PGL4.2 luciferase reporter plasmid. Reporter cells were selected by puromycin (1 ug/mL) in RPMI-1640 medium with 10% FBS.
# Luciferase assay—Reporter cells were treated with compounds at 0, 10, 20, 40, and […] for 24h in a 37° C.-CO2 incubator with or without chenodeoxycholic acid (CDCA) for FXR reporter cells or GW3965 for LXR reporter cells. Cells were lysed using luciferase lysis buffer after which luciferase buffer with luciferin was added to generate luminescence. Luminescence was recorded using a luminescence microplate reader.
# VDR = molecular target: T3, VDR (Homo sapiens, UniProt P11473); test: Hormone receptor signaling pathway selectivity: VDRE (VDR); settings: for IC50: with VD3, read-out: VDRE with ligand VD3 (inhibition IC50)
# T3 sequence (P11473 1-427): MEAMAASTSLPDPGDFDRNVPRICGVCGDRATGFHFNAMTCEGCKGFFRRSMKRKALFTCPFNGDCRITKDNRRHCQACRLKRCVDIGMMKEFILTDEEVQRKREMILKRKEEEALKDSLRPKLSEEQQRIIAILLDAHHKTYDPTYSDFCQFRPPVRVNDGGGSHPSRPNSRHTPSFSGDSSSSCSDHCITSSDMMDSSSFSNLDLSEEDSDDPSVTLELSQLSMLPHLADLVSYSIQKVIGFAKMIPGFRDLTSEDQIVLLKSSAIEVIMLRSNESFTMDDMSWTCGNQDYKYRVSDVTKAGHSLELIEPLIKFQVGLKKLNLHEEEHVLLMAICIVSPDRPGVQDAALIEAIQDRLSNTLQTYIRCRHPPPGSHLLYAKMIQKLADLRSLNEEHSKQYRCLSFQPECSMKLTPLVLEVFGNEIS
# ER-β = ER-β (Homo sapiens, UniProt Q92731); test: Hormone receptor signaling pathway selectivity: ER-β; settings: with E2; read-out: ER-β with ligand E2 (inhibition IC50)
# AR = molecular target: T4, AR (Homo sapiens, UniProt P10275); test: Hormone receptor signaling pathway selectivity: AR; settings: with DHT; read-out: AR with ligand DHT (inhibition IC50)
# T4 sequence (P10275 1-920): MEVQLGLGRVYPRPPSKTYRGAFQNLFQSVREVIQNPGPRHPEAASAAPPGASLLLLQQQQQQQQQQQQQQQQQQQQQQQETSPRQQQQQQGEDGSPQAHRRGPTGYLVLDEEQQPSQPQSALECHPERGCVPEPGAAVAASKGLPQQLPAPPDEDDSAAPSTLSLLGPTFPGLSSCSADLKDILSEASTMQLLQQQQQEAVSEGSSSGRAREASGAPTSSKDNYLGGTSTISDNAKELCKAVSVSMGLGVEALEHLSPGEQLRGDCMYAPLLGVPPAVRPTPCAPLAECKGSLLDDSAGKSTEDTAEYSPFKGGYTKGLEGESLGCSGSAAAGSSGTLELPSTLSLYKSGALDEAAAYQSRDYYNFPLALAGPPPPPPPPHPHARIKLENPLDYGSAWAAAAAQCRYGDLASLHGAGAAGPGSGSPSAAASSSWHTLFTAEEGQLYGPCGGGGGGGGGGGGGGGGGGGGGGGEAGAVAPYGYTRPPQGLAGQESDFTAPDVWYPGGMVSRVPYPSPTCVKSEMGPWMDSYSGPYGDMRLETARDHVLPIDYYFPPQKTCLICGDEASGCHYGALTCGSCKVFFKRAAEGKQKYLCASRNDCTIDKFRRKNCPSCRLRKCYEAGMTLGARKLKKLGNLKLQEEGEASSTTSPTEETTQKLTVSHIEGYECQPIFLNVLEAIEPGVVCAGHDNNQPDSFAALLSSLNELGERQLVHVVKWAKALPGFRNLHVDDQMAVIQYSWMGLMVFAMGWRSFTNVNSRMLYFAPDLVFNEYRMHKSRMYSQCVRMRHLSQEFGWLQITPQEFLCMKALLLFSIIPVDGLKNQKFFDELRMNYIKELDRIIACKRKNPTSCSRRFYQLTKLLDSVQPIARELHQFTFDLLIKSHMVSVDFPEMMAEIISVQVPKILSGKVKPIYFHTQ
# BACS = test: RT-qPCR for FXR target genes in HepG2 cells: BACS
# Method: (§1) Real Time Quantitative PCR (RT-qPCR)—Real Time Quantitative PCR (RT-qPCR) for FXR target genes: RNA was extracted from NZZ compounds treated cells using the Roche High Pure RNA isolation kit. cDNA was then generated from RNA samples using Bio-rad iScript Advanced cDNA synthesis kit for RT-qPCR. qPCR was performed using primers as shown in the Table 1 and iTaq™ Universal SYBR® Green Supermix in CFX PCR machine (Bio-rad). Relative mRNA expression was calculated based on the change of the threshold cycle relative to the internal control, (3-actin, using a standard curve generated by purified PCR products.
# [1] = system: other hormone receptor signaling pathways; test: Selectivity for different hormone receptor signaling pathways (panel)
# CYP7A1 = test: RT-qPCR for FXR target genes in HepG2 cells: CYP7A1; settings: concentration of about 35 μM to 45
# Method: as §1
# PPARa = test: RT-qPCR for FXR target genes in HepG2 cells: PPARa; settings: concentration of about 75 μM to 85
# Method: as §1
# ER-β, sequence (Q92731 whole entry, species assumed): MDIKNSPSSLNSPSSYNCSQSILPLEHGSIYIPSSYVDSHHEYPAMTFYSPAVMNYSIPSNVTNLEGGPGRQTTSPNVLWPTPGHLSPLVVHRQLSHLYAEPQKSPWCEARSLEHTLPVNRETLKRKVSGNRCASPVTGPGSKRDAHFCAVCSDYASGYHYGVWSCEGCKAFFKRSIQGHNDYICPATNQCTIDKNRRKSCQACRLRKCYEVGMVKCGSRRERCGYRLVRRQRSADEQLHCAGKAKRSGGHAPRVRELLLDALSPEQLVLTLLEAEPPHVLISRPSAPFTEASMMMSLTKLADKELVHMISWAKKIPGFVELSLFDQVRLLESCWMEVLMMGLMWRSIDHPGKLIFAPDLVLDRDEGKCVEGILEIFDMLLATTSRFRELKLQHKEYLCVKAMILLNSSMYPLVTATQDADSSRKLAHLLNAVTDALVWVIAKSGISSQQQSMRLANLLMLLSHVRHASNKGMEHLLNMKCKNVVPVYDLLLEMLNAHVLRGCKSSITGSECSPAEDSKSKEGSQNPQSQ
SMILES,IC50 (ER-α) [µM],EC50 (FXR) [µM],IC50 (VDR) [µM],IC50 (ER-β) [µM],IC50 (AR) [µM],"EC50 (VDR; biphasic model of action, read-out: EC50, stimulation of VDR activity) [µM]",induction of FXR activity / FXR mediated transcriptional response (FXR),"BACS mRNA expression, fold lower than the CDCA induced BACS expression (BACS)",impact on other hormone receptor signaling pathways [1],"inhibition of CYP7A1, stronger than by compound (II) or by CDCA (CYP7A1)","PPARa mRNA expression, fold higher than that induced by compound (II) (PPARa)"
C=C(CCC(C(=O)O)[C@H]1C[C@H](OC(C)=O)[C@@]2(C)C3=CC[C@H]4C(C)(C)[C@@H](O)CC[C@]4(C)C3=CC[C@]12C)C(C)C (stereo partly drawn) [compound (IX)],> 80,> 80,> 80,> 80,> 80,,,,,,
C=C(CCC(C(=O)O)C1CCC2(C)C3=CCC4C(C)(CCC(O)C4(C)C)C3=CCC12C)C(C)C (stereo not drawn) [compound (X)],> 80,> 80,> 80,> 80,> 80,1.5,,,,,
C=C(CC[C@@H](C)[C@H]1CC[C@H]2C3=C(C(=O)[C@H](O)[C@]12C)[C@@]1(C)CC[C@@H](O)[C@@H](C)[C@@H]1CC3=O)[C@H](C)C(=O)O [compound (II)],> 80,40,> 80,> 80,> 80,,act as agonists; also recorded: induce/enhance FXR activity,about 2 fold,no impact,,
C=C(CC[C@@H](C)[C@H]1CC[C@H]2C3=C(C(=O)[C@H](O)[C@]12C)[C@@]1(C)CC[C@@H](O)[C@@H](C)[C@@H]1CC3=O)[C@@H](C)C(=O)O [compound (I)],> 80,25,> 80,> 80,> 80,,act as agonists; also recorded: induce/enhance FXR activity,about 2 fold,no impact,about 40%,about 2 fold
C=C(CC[C@@H](C)[C@H]1CC[C@H]2C3=C(CC[C@]12C)[C@@]1(C)CC[C@@H](O)C(C)(C)[C@@H]1C[C@@H]3O)[C@@H](C)C(=O)O [compound (XI)],> 80,> 80,> 80,> 80,> 80,,,,,,
C=C(CC[C@@H](C(=O)O)[C@H]1C[C@H](O)[C@@]2(C)C3=CC[C@H]4C(C)(C)C(O)CC[C@]4(C)C3=CC[C@]12C)C(C)C (stereo partly drawn) [compound (VI)],> 80,> 80,> 80,> 80,> 80,,,,,,
